Measurements reported in patent US12552783B2, “Modulators of proteolysis and associated methods of use” (Arvinas Operations, Inc., priority 2018, dated 2026).

Target: KRas (Homo sapiens, UniProt P01116, G12C)
Assay: KRas degradation in SW1573 cells by Western blot, normalized to GAPDH (data of Table 14)
Type: cell-based
Details: SW1573 cells
In short: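 SW1573 cells, homozygous for the KRas G12C mutation and maintained in DMEM with 10% FBS and 1% penicillin-streptomycin, were seeded in 12-well plates, allowed to attach overnight at 37° C. under 5% CO2, then serum-starved for 24 hours before compound exposure. KRas levels were measured by Western blot, normalized to GAPDH, and compared with DMSO controls to give percent degradation, DC50 and Dmax.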

Row | Percent Degradation at Indicated Concentration (μM) (0.03 μM) | Percent Degradation at Indicated Concentration (μM) (0.1 μM) | Percent Degradation at Indicated Concentration (μM) (0.3 μM) | Percent Degradation at Indicated Concentration (μM) (1 μM) | Percent Degradation at Indicated Concentration (μM) (3 μM) | Dmax [%] | SMILES
1 | C (Percent Degradation: C ≤ 35) | C (Percent Degradation: C ≤ 35) | C (Percent Degradation: C ≤ 35) | C (Percent Degradation: C ≤ 35) |  |  | C=CC(=O)N1CCN(c2nc(OC[C@@H]3C[C@@H](OCCOCCOc4ccc5c(c4)C(=O)N(C4CCC(=O)NC4=O)C5=O)CN3C)nc3c2CCN(c2cccc4ccccc24)C3)C[C@@H]1CC#N (stereo partly drawn) [compound 503, 2-((2S)-1-acryloyl-4-(2-(((2S,4R)-4-(2-(2-((2-(2,6-dioxopiperidin-3-yl)-1,3-dioxoisoindolin-5-yl)oxy)ethoxy)ethoxy)-1-methylpyrrolidin-2-yl)methoxy)-7-(naphthalen-1-yl)-5,6,7,8-tetrahydropyrido[3,4-d]pyrimidin-4-yl)piperazin-2-yl)acetonitrile]
2 |  |  | C (Percent Degradation: C ≤ 35) | C (Percent Degradation: C ≤ 35) | C (Percent Degradation: C ≤ 35) |  | C[C@H](CN1CCC(OCCOCCOCCOCCOCCOc2ccc3c(c2)C(=O)N(C2CCC(=O)NC2=O)C3=O)CC1)Oc1nc(N2CCN(C(=O)C(O)O)CC2)c2cc(Cl)c(-c3cc(O)cc4ccccc34)c(F)c2n1 (stereo partly drawn) [compound 515, 5-((14-((1-((2R)-2-((6-chloro-4-(4-(2,2-dihydroxyacetyl)piperazin-1-yl)-8-fluoro-7-(3-hydroxynaphthalen-1-yl)quinazolin-2-yl)oxy)propyl)piperidin-4-yl)oxy)-3,6,9,12-tetraoxatetradecyl)oxy)-2-(2,6-dioxopiperidin-3-yl)isoindoline-1,3-dione]
3 |  | B (35 < B < 70) | A (A > 70) | C (Percent Degradation: C ≤ 35) |  | ≥ 70 | C=CC(=O)N1CCN(c2nc(OC[C@@H]3C[C@@H](OCCOCCOCCOCCNc4cccc5c4C(=O)N(C4CCC(=O)NC4=O)C5=O)CN3C)nc3c2CCN(c2cccc4ccccc24)C3)C[C@@H]1CC#N (stereo partly drawn) [compound 518, 2-((2S)-1-acryloyl-4-(2-(((2S,4R)-4-(2-(2-(2-(2-((2-(2,6-dioxopiperidin-3-yl)-1,3-dioxoisoindolin-4-yl)amino)ethoxy)ethoxy)ethoxy)ethoxy)-1-methylpyrrolidin-2-yl)methoxy)-7-(naphthalen-1-yl)-5,6,7,8-tetrahydropyrido[3,4-d]pyrimidin-4-yl)piperazin-2-yl)acetonitrile]
4 |  | B (35 < B < 70) | A (A > 70) | C (Percent Degradation: C ≤ 35) |  | ≥ 70 | C=CC(=O)N1CCN(c2nc(OC[C@@H]3C[C@@H](OCCOCCOCCOc4ccc5c(c4)C(=O)N(C4CCC(=O)NC4=O)C5=O)CN3C)nc3c2CCN(c2cccc4ccccc24)C3)C[C@@H]1CC#N (stereo partly drawn) [compound 504, 2-((2S)-1-acryloyl-4-(2-(((2S,4R)-4-(2-(2-(2-((2-(2,6-dioxopiperidin-3-yl)-1,3-dioxoisoindolin-5-yl)oxy)ethoxy)ethoxy)ethoxy)-1-methylpyrrolidin-2-yl)methoxy)-7-(naphthalen-1-yl)-5,6,7,8-tetrahydropyrido[3,4-d]pyrimidin-4-yl)piperazin-2-yl)acetonitrile]
5 | C (Percent Degradation: C ≤ 35) | C (Percent Degradation: C ≤ 35) | C (Percent Degradation: C ≤ 35) |  |  |  | C=CC(=O)N1CCN(c2nc(O[C@H](C)CN3CCC(OCCOCCOCCOc4cc([C@@H](C(=O)N5C[C@H](O)C[C@H]5C(=O)N[C@@H](C)c5ccc(-c6scnc6C)cc5)C(C)C)on4)CC3)nc3c(F)c(-c4cc(O)cc5ccccc45)c(Cl)cc23)CC1 [compound 528, (2S,4R)-1-((2S)-2-(3-(2-(2-(2-((1-((2R)-2-((4-(4-acryloylpiperazin-1-yl)-6-chloro-8-fluoro-7-(3-hydroxynaphthalen-1-yl)quinazolin-2-yl)oxy)propyl)piperidin-4-yl)oxy)ethoxy)ethoxy)ethoxy)isoxazol-5-yl)-3-methylbutanoyl)-4-hydroxy-N-((S)-1-(4-(4-methylthiazol-5-yl)phenyl)ethyl)pyrrolidine-2-carboxamide]
6 |  |  | C (Percent Degradation: C ≤ 35) | C (Percent Degradation: C ≤ 35) | C (Percent Degradation: C ≤ 35) |  | Cc1ncsc1-c1ccc([C@H](C)NC(=O)[C@@H]2C[C@@H](O)CN2C(=O)[C@@H](NC(=O)COCCOCCOCCOCCO[C@@H]2C[C@@H](COc3nc4c(c(N5CCN(C(N)=O)[C@@H](CC#N)C5)n3)CCN(c3cccc5ccccc35)C4)N(C)C2)C(C)(C)C)cc1 [compound 537, (S)-2-(cyanomethyl)-4-(2-(((2S,4R)-4-(((S)-16-((2S,4R)-4-hydroxy-2-(((S)-1-(4-(4-methylthiazol-5-yl)phenyl)ethyl)carbamoyl)pyrrolidine-1-carbonyl)-17,17-dimethyl-14-oxo-3,6,9,12-tetraoxa-15-azaoctadecyl)oxy)-1-methylpyrrolidin-2-yl)methoxy)-7-(naphthalen-1-yl)-5,6,7,8-tetrahydropyrido[3,4-d]pyrimidin-4-yl)piperazine-1-carboxamide]
7 |  | C (Percent Degradation: C ≤ 35) | B (35 < B < 70) | B (35 < B < 70) |  |  | C=CC(=O)N1CCN(c2nc(O[C@H](C)CN3CCC(OCCOc4cc(-c5scnc5C)ccc4CNC(=O)[C@@H]4C[C@@H](O)CN4C(=O)[C@@H](c4cc(C)no4)C(C)C)CC3)nc3c2CCN(c2cc(O)cc4ccccc24)C3)CC1 [compound 436, (2S,4R)-N-(2-(2-((1-((R)-2-((4-(4-acryloylpiperazin-1-yl)-7-(3-hydroxynaphthalen-1-yl)-5,6,7,8-tetrahydropyrido[3,4-d]pyrimidin-2-yl)oxy)propyl)piperidin-4-yl)oxy)ethoxy)-4-(4-methylthiazol-5-yl)benzyl)-4-hydroxy-1-((R)-3-methyl-2-(3-methylisoxazol-5-yl)butanoyl)pyrrolidine-2-carboxamide]
8 | C (Percent Degradation: C ≤ 35) | C (Percent Degradation: C ≤ 35) | C (Percent Degradation: C ≤ 35) |  |  |  | C=CC(=O)N1CCN(c2nc(O[C@H](C)CN3CCC(OCCOc4cc([C@H](C(=O)N5C[C@H](O)C[C@H]5C(=O)N[C@@H](C)c5ccc(-c6scnc6C)cc5)C(C)C)on4)CC3)nc3c(F)c(-c4cc(O)cc5ccccc45)c(Cl)cc23)CC1 [compound 525, (2S,4R)-1-((2R)-2-(3-(2-((1-((2R)-2-((4-(4-acryloylpiperazin-1-yl)-6-chloro-8-fluoro-7-(3-hydroxynaphthalen-1-yl)quinazolin-2-yl)oxy)propyl)piperidin-4-yl)oxy)ethoxy)isoxazol-5-yl)-3-methylbutanoyl)-4-hydroxy-N-((S)-1-(4-(4-methylthiazol-5-yl)phenyl)ethyl)pyrrolidine-2-carboxamide]
9 |  |  | C (Percent Degradation: C ≤ 35) | C (Percent Degradation: C ≤ 35) | C (Percent Degradation: C ≤ 35) |  | Cc1ncsc1-c1ccc([C@H](C)NC(=O)[C@@H]2C[C@@H](O)CN2C(=O)[C@@H](NC(=O)COCCOC2CCN(C[C@@H](C)Oc3nc(N4CCN(C(=O)C(O)O)CC4)c4cc(Cl)c(-c5cc(O)cc6ccccc56)c(F)c4n3)CC2)C(C)(C)C)cc1 [compound 244, (2S,4R)-1-((2S)-2-(2-(2-((1-((2R)-2-((6-chloro-4-(4-(2,2-dihydroxyacetyl)piperazin-1-yl)-8-fluoro-7-(3-hydroxynaphthalen-1-yl)quinazolin-2-yl)oxy)propyl)piperidin-4-yl)oxy)ethoxy)acetamido)-3,3-dimethylbutanoyl)-4-hydroxy-N-((S)-1-(4-(4-methylthiazol-5-yl)phenyl)ethyl)pyrrolidine-2-carboxamide]
10 |  | C (Percent Degradation: C ≤ 35) | C (Percent Degradation: C ≤ 35) | C (Percent Degradation: C ≤ 35) |  |  | C=CC(=O)N1CCN(c2nc(O[C@H](C)CN3CCC(OCCOCCOCCOCCOc4cc(-c5scnc5C)ccc4CNC(=O)[C@@H]4C[C@@H](O)CN4C(=O)[C@@H](c4cc(C)no4)C(C)C)CC3)nc3c2CCN(c2cc(O)cc4ccccc24)C3)CC1 [compound 442]
11 |  | C (Percent Degradation: C ≤ 35) | C (Percent Degradation: C ≤ 35) | C (Percent Degradation: C ≤ 35) |  |  | C=CC(=O)N1CCN(c2nc(O[C@H](C)CN3CCC(OCCOc4ccc5c(c4)CN(C4CCC(=O)NC4=O)C5=O)CC3)nc3c2CCN(c2cc(O)cc4ccccc24)C3)CC1 (stereo partly drawn) [compound 421]
12 |  | C (Percent Degradation: C ≤ 35) | C (Percent Degradation: C ≤ 35) | C (Percent Degradation: C ≤ 35) |  |  | C=CC(=O)N1CCN(c2nc(OC3CCN(CCOCCN4CCN(CC(=O)N[C@H](C(=O)N5C[C@H](O)C[C@H]5C(=O)N[C@@H](C)c5ccc(-c6scnc6C)cc5)C(C)(C)C)CC4)CC3)nc3c(F)c(-c4cc(O)cc5ccccc45)c(Cl)cc23)CC1 [compound 475, (2S,4R)-1-((2S)-2-(2-(4-(2-(2-(4-((4-(4-acryloylpiperazin-1-yl)-6-chloro-8-fluoro-7-(3-hydroxynaphthalen-1-yl)quinazolin-2-yl)oxy)piperidin-1-yl)ethoxy)ethyl)piperazin-1-yl)acetamido)-3,3-dimethylbutanoyl)-4-hydroxy-N-((S)-1-(4-(4-methylthiazol-5-yl)phenyl)ethyl)pyrrolidine-2-carboxamide]
